Columns and labels:
penicilium italicum = assay: in vitro efficacy on PDA medium in microtitre plate wells (radial growth of colony); format: cell-based; conditions: for control of the growth of the fungus (in words): 60 ppm each, alone or combined; for Radial growth of fungus / Efficacy: 60 ppm, PDA medium, 22° C.; for Radial growth of fungus: control 20 mm; for Efficacy: versus untreated control
Protocol: This example illustrates the efficacy of the composition according to the invention for controlling penicilium italicum. The trial was carried out in vitro.
The fungicidal compositions were used in the form of the formulated product incorporated in PDA medium in superfusion at doses in an amount of 6 μl of fungicidal solutions together with 1000 μl of PDA per well of 20 mm in diameter of a microtitre plate (four repeats/product). One day later, a microdrop of an aqueous suspension of penicilium italicum supplemented with 400 ppm of Tween 20 was brought to the surface of each well of the microtitre plate. The cultures were then incubated at 22° C. at 60% relative humidity under subdued light until the control culture (without fungicide) had covered the entire surface of the well. The diameter of each colony was then measured and, in comparison with untreated control, a percentage efficacy was calculated using the formula
(§1) (Diameter of the Control−Diameter of the Trial/Diameter of the Control×100)

penicillium expansum = assay: in vivo efficacy on Golden apples, preventive sprinkling then inoculation, fruit affected by rot counted; conditions: for Efficacy: Golden apples, 20° C., scored from three weeks; for control of the growth of the fungus (in words): hexanal 1000 ppm, imidazalil 250 ppm, alone or combined, apples
Protocol: This example provides an illustration of the efficacy of the composition according to the invention for combating penicillium expansum on apples. The trial was carried out in vivo.
The fungicidal compositions were used in solution at the doses detailed in Table 2. Apples of the Golden variety, untreated after harvest, were treated by sprinkling a fungicidal solution up to the run-of limit at the doses described in Table 2 (10 apples per product). Six hours later, the fruit was inoculated by sprinkling an aqueous suspension at 150000 spores/ml of […]. obtained from a pre-culture on PDA medium. This inoculation by sprinkling was carried out up to the run-off limit. The fruit was then stored in the dark at 20° C. and 100% relative humidity and the scores for the disease were measured three weeks later, for a period of two weeks. The numbers of fruit samples affected by rot were counted and, in comparison with the untreated control, a percentage efficacy was calculated using the formula
as §1

geotrichum candidum = assay: in vivo efficacy on valencia citrus, wound inoculation then treatment six hours later, fruit affected by rot counted; conditions: 5° C., 28 days
Protocol: This trial was carried out in vivo.
The fungicidal compositions were used in solution at the doses detailed in Table 3. Citrus of the valencia variety, untreated after harvest, was treated by sprinkling a fungicidal solution up to the run-off limit at the doses described in Table 3 of results (10 citrus per product). First inoculation by pre-made wounds was made with a suspension of 150000 spores/ml of geotrichum candidum, obtained from a pre-culture on PDA medium. Then six hours later, the product tested was applied up to the run-off limit. The fruit were then stored in the dark at 5° C. and 100% relative humidity and the scores for the disease were measured 28 days later.
The number of fruit samples affected by rot was counted and, in comparison with the untreated control, a percentage efficacy was calculated and show in table 3 below: […]

CCCCCC=O [hexanal]
control of the growth of the fungus (in words) (penicilium italicum): poor results
Radial growth of fungus (penicilium italicum): 19 mm
Efficacy (penicilium italicum): 5%
Efficacy (penicillium expansum; 1000 ppm): 12%
control of the growth of the fungus (in words) (penicillium expansum): did not control the growth of the fungus
Efficacy (geotrichum candidum; 1500 ppm): 20%

C=CCOC(Cn1ccnc1)c1ccc(Cl)cc1Cl (stereo not drawn) [Imazalil, imazalil]
Efficacy (penicillium expansum; 250 ppm): 28%
control of the growth of the fungus (in words) (penicillium expansum): did not control the growth of the fungus
Efficacy (geotrichum candidum; 500 ppm): 0%

CCCN(CCOc1c(Cl)cc(Cl)cc1Cl)C(=O)n1ccnc1 [procloraz, prochloraz]
control of the growth of the fungus (in words) (penicilium italicum): poor results
Radial growth of fungus (penicilium italicum): 18 mm
Efficacy (penicilium italicum): 10%
